Experimental data taken from ChEMBL document CHEMBL2046380, “Synthesis and structure-activity relationship of disubstituted benzamides as a novel class of antimalarial agents” (Bioorg Med Chem Lett, 2012).

Tests used:
Plasmodium falciparum [1] = assay: Antimalarial activity against […] incubated for 72 hrs by DNA staining based MARK1 growth inhibition assay; format: functional, organism-based
HepG2 = assay: Cytotoxicity against human HepG2 cells after 72 hrs by […] CellTiterGlo reagent assay; format: cell-based; conditions: HepG2, 72 h
HEK293 = assay: Cytotoxicity against human HEK293 cells after 72 hrs by […] CellTiterGlo reagent assay; format: cell-based; conditions: HEK293, 72 h
Plasmodium falciparum [2] = assay: Antimalarial activity against chloroquine-sensitive Plasmodium falciparum 3D7 incubated for 72 hrs by DNA staining based MAR3D7 growth inhibition assay; format: functional, organism-based; conditions: 3D7, 72 h
BJ = assay: Cytotoxicity against human BJ cells after 72 hrs by […] CellTiterGlo reagent assay; format: cell-based
Raji = assay: Cytotoxicity against human Raji cells after 72 hrs by […] CellTiterGlo reagent assay; format: cell-based

SMILES	EC50 (Plasmodium falciparum [1]) [µM]	EC50 (HepG2) [µM]	EC50 (HEK293) [µM]	EC50 (Plasmodium falciparum [2]) [µM]	EC50 (BJ) [µM]	EC50 (Raji) [µM]
COc1cc2c(cc1OC)C1(CC=CCC1)N(C(C)=O)CC2 (stereo not given)	> 7.51	> 13	> 13	> 7.51	> 13	> 13
COc1cc2c(cc1OC)C(C)=NCC2	> 7.51	> 13	> 13	> 7.51	> 13	> 13
CCOC(=O)CCCCCOc1cccc(C=O)c1	> 15	> 26	> 26	> 15	> 26	> 26
CCCN(Cc1ccc(OCCCCCC(=O)O)cc1)C(=O)c1ccc(-c2ccc3c(c2)OCO3)cc1	0.928	> 26	> 26	> 15	> 26	> 26
C[C@@H](NC(=O)c1ccc(-c2ccc3c(c2)OCO3)cc1)c1ccccc1	> 15	> 26	> 26	> 15	> 26	> 26
CCOC(=O)CCCCCOc1cccc(CN(C(=O)c2ccc(-c3cccc(OCc4ccccc4)c3)cc2)C(C)C)c1	> 15	> 26	> 26	> 15	> 26	> 26
CC(C)N(Cc1cccc(OCCCCCC(=O)O)c1)C(=O)c1ccc(-c2cccc(Br)c2)cc1	> 15	> 26	> 26	> 15	> 26	> 26
CCCN(Cc1cccc(OCCCCCC(=O)O)c1)C(=O)c1ccc(-c2ccc3c(c2)OCO3)cc1	0.995	> 26	> 26	0.174	> 26	> 26
CCOc1cccc(-c2ccc(C(=O)N(Cc3cccc(OCCCCCC(=O)O)c3)C(C)C)cc2)c1	> 11.5	> 20.9	> 20.9	> 11.5	> 20.9	> 20.9
CCOC(=O)CCCCCOc1cccc(CN(C(=O)c2ccc(-c3cc(F)cc(OC)c3)cc2)C(C)C)c1	> 15	> 26	> 26	> 15	> 26	> 26
CCOC(=O)CCCCCOc1cccc(CN(C(=O)c2ccc(-c3cccc(N(C)C)c3)cc2)C(C)C)c1	> 15	> 26	> 26	> 15	> 26	> 26
CC(C)N(Cc1cccc(OCCCCCC(=O)O)c1)C(=O)c1ccc(-c2cccc(O)c2)cc1	> 15	> 26	> 26	> 15	> 26	> 26
CC(C)N(Cc1ccc(OCCCCCC(=O)O)cc1)C(=O)c1ccc(-c2ccc3c(c2)OCO3)cc1	1.82	> 26	> 26	> 15	> 26	> 26
COc1ccc(F)c(-c2ccc(C(=O)N(Cc3cccc(OCCCCCC(=O)O)c3)C(C)C)cc2)c1	> 15	> 26	> 26	> 15	> 26	> 26
CCCN(Cc1ccccc1OCCCCCC(=O)OCC)C(=O)c1ccc(-c2ccc3c(c2)OCO3)cc1	> 15	> 26	> 26	> 15	> 26	> 26
CCOC(=O)CCCCCOc1ccc(CN(C(=O)c2ccc(-c3ccc4c(c3)OCO4)cc2)C(C)C)cc1	> 15	> 26	> 26	> 15	> 26	> 26
CCOC(=O)CCCCCOc1cccc(CN(C(=O)c2ccc(-c3cccc(Cl)c3)cc2)C(C)C)c1	> 10.2	> 18.5	> 18.5	> 10.2	> 18.5	> 18.5
CC(C)N(Cc1cccc(OCCCCCC(=O)O)c1)C(=O)c1ccc(-c2cccc(OCc3ccccc3)c2)cc1	> 15	> 26	> 26	> 15	> 26	> 26
CCOC(=O)CCCCCOc1cccc(CN(C(=O)c2ccc(-c3cccc(O)c3)cc2)C(C)C)c1	> 15	> 26	> 26	> 15	> 26	> 26
CCOC(=O)CCCCCOc1ccc(C=O)cc1	> 15	> 26	> 26	0.0584	> 26	> 26
CC(C)N(Cc1cccc(OCCCCCC(=O)O)c1)C(=O)c1ccc(-c2cccc(CC#N)c2)cc1	> 15	> 26	> 26	> 15	> 26	> 26
COc1cccc(-c2ccc(C(=O)N(Cc3cccc(OCCCCCC(=O)O)c3)C(C)C)cc2)c1	> 11.6	> 26	> 21	> 11.6	> 21	> 21

SMILES	EC50 (Plasmodium falciparum [1]) [µM]	EC50 (HepG2) [µM]	EC50 (HEK293) [µM]	EC50 (Plasmodium falciparum [2]) [µM]	EC50 (BJ) [µM]	EC50 (Raji) [µM]
CCOC(=O)CCCCCOc1cccc(CN(C(=O)c2ccc(-c3ccc(C(C)=O)s3)cc2)C(C)C)c1	> 15	> 26	> 26	> 15	> 26	> 26
CCOC(=O)CCCCCOc1cccc(CN(C(=O)c2ccc(-c3cccc(OC(C)C)c3)cc2)C(C)C)c1	> 15	> 26	> 26	> 15	> 26	> 26
CCCNCc1ccc(OCCCCCC(=O)OCC)cc1	> 15	> 26	> 26	> 15	> 26	> 26
CCOC(=O)/C=C1\NCCc2cc3c(cc21)OCO3	> 7.51	> 13	> 13	> 7.51	> 13	> 13
COc1ccc(-c2cc(C(=O)O)c3ccccc3n2)cc1OC	> 15	> 26	> 26	> 15	> 26	> 26
COc1cc(OC)cc(-c2ccc(C(=O)N(Cc3cccc(OCCCCCC(=O)O)c3)C(C)C)cc2)c1	> 15	> 26	> 26	> 15	> 26	> 26
CCOC(=O)CCCCCOc1cccc(CN(C(=O)c2ccc(-c3ccsc3)cc2)C(C)C)c1	> 15	> 26	> 26	> 15	> 26	> 26
CCOC(=O)CCCCCOc1cccc(CN(C(=O)c2ccc(-c3cn(S(=O)(=O)c4ccccc4)c4ccccc34)cc2)C(C)C)c1	> 15	> 26	> 26	> 15	> 26	> 26
CC(C)N(Cc1cccc(OCCCCCC(=O)O)c1)C(=O)c1ccc(-c2ccc3c(c2)OCO3)cc1	0.438	> 26	> 26	0.0604	> 26	> 26
CCOC(=O)CCCCCOc1cccc(CN(C(=O)c2ccc(-c3cc(OC)cc(OC)c3)cc2)C(C)C)c1	> 15	> 26	> 26	> 15	> 26	> 26
CC(C)N(Cc1cccc(OCCCCCC(=O)O)c1)C(=O)c1ccc(-c2cccc(Oc3ccccc3)c2)cc1	> 10.4	> 18.8	> 18.8	> 10.4	> 18.8	> 18.8
CC(C)N(Cc1cccc(OCCCCCC(=O)O)c1)C(=O)c1ccc(-c2cc3ccccc3n2S(=O)(=O)c2ccccc2)cc1	> 15	> 26	> 26	> 15	> 26	> 26
COC(=O)c1cc(-c2cccs2)nc2ccccc12	> 15	> 26	> 26	> 15	> 26	> 26
CCOC(=O)CCCCCOc1cccc(CN(C(=O)c2ccc(-c3cc(OC)ccc3F)cc2)C(C)C)c1	> 15	> 26	> 26	> 15	> 26	> 26
C=CCCN(CCc1ccc(OC)c(OC)c1)C(=O)CC(C)=O	> 7.51	> 13	> 13	> 7.51	> 13	> 13
C=CCCC1=NCC(O[Si](C)(C)C(C)(C)C)c2cc(OC)c(OC)cc21 (stereo not given)	3.06	> 13	> 13	2.95	> 13	> 13
CC(C)N(Cc1cccc(OCCCCCC(=O)O)c1)C(=O)c1ccc(-c2cccc(Cl)c2)cc1	> 12.1	> 21.9	> 21.9	> 12.1	> 21.9	> 21.9
CC(C)N(Cc1ccccc1OCCCCCC(=O)O)C(=O)c1ccc(-c2ccc3c(c2)OCO3)cc1	> 15	> 26	> 26	> 15	> 26	> 26
CCOC(=O)CCCCCOc1cccc(CN(C(=O)c2ccc(-c3cccc([N+](=O)[O-])c3)cc2)C(C)C)c1	> 15	> 26	> 26	> 15		> 26
CCOC(=O)CCCCCOc1cccc(CN(C(=O)c2ccc(-c3cccc(C(F)(F)F)c3)cc2)C(C)C)c1	> 15	> 26	> 26	> 15		> 26
CC(C)N(Cc1cccc(OCCCCCC(=O)O)c1)C(=O)c1ccc(-c2cccc3ccccc23)cc1	> 15	> 26	> 26	> 15		> 26
